Molecular target: T1, Human Polymorphonuclear Leukocyte Elastase (Homo sapiens, UniProt P08246)
T1 construct: Crude extract of human polymorphonuclear leukocytes (PMN) containing elastase activity; from tissue; host or cells: human polymorphonuclear leukocytes (crude extract)
T1 sequence (P08246 30-267): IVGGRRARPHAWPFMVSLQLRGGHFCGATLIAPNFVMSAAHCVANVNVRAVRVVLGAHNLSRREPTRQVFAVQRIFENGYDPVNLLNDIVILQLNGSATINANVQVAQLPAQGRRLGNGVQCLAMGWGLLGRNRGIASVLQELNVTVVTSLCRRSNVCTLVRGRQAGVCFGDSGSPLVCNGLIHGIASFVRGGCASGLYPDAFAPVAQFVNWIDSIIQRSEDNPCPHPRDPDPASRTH
Experiment: Enzyme assay for inhibition of human polymorphonuclear leukocyte elastase via hydrolysis of Boc-AAPAN or Boc-AAPVN
Assay type: biochemical
Details: pH 7.5, second order rate constant for inactivation of the enzyme, expressed to the nearest thousand, read-out: Kobs/[I]
Procedure, shortened: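 Crude human PMN extract as enzyme source, with 0.2 mM Boc-AAPAN in 0.05M TES buffer pH 7.5. Inhibitors in DMSO were added to substrate before the extract, and rate was followed as ΔOD/min at 410 mµ. Values are kobs/I, the second-order inactivation rate constant (per mole per second).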

| SMILES | kinact/KI |
| --- | --- |
| CCC[C@@H](NC(=O)N1C(=O)C(CC)(CC)[C@@H]1Oc1ccc(C(=O)NC2CCCN(CC)C2)cc1)c1ccc(C)cc1 (stereo partly shown) [Compound 162] | 949000 M⁻¹ s⁻¹ |
| CCC[C@@H](NC(=O)N1C(=O)C(CC)(CC)[C@@H]1Oc1ccc(C(=O)N(C)CCN(C)Cc2ccco2)cc1)c1ccc(C)cc1 [Compound 163] | 1.82e+06 M⁻¹ s⁻¹ |
| CCC[C@@H](NC(=O)N1C(=O)C(CC)(CC)[C@@H]1Oc1ccc(C(=O)N(C)CCCC(=O)O)cc1)c1ccc(C)cc1 [Compound 164] | 1.06e+06 M⁻¹ s⁻¹ |
| CCC[C@@H](NC(=O)N1C(=O)C(CC)(CC)[C@@H]1Oc1ccc(C(=O)N(C)CCCC(=O)NS(=O)(=O)c2ccccc2)cc1)c1ccc(C)cc1 [Compound 165] | 1.55e+06 M⁻¹ s⁻¹ |
| C=CCN(C)CCN(C)C(=O)c1ccc(O[C@@H]2N(C(=O)N[C@H](CCC)c3ccc(C)cc3)C(=O)C2(CC)CC)cc1 [Compound 166] | 1.36e+06 M⁻¹ s⁻¹ |
| CCC[C@@H](NC(=O)N1C(=O)C(CC)(CC)[C@@H]1Oc1ccc(C(=O)N(C)CCCN(C)Cc2ccccc2)cc1)c1ccc(C)cc1 [Compound 167] | 1.29e+06 M⁻¹ s⁻¹ |
| CCC[C@@H](NC(=O)N1C(=O)C(CC)(CC)[C@@H]1Oc1ccc(C(=O)N(C)CCCCCCN(C)Cc2ccccc2)cc1)c1ccc(C)cc1 [Compound 168] | 2.16e+06 M⁻¹ s⁻¹ |
| CCC[C@@H](NC(=O)N1C(=O)C(CC)(CC)[C@@H]1Oc1ccc(C(=O)N(C)CCO)cc1)c1ccc(C)cc1 [Compound 169] | 1.46e+06 M⁻¹ s⁻¹ |
| CCC[C@@H](NC(=O)N1C(=O)C(CC)(CC)[C@@H]1Oc1ccc(C(=O)N(C)CCOC(=O)N(C)C)cc1)c1ccc(C)cc1 [Compound 170] | 1.52e+06 M⁻¹ s⁻¹ |
| CCC[C@@H](NC(=O)N1C(=O)C(CC)(CC)[C@@H]1Oc1ccc(C(=O)N(C)CCN(C)CC(=O)OC(C)(C)C)cc1)c1ccc(C)cc1 [Compound 171] | 1.83e+06 M⁻¹ s⁻¹ |
| CCC[C@@H](NC(=O)N1C(=O)C(CC)(CC)[C@@H]1Oc1ccc(C(=O)N(C)C2CCCN(CC)C2)cc1)c1ccc(C)cc1 (stereo partly shown) [Compound 172] | 1.54e+06 M⁻¹ s⁻¹ |
| CCC[C@@H](NC(=O)N1C(=O)C(CC)(CC)[C@@H]1Oc1ccc(C(=O)N(C)CCN(C)CC2CCCCO2)cc1)c1ccc(C)cc1 (stereo partly shown) [Compound 173] | 2.94e+06 M⁻¹ s⁻¹ |
| CCC[C@@H](NC(=O)N1C(=O)C(CC)(CC)[C@@H]1Oc1ccc(C(=O)NC2CC(C)(C)NC(C)(C)C2)cc1)c1ccc(C)cc1 [Compound 174] | 869000 M⁻¹ s⁻¹ |
| CCC[C@@H](NC(=O)N1C(=O)C(CC)(CC)[C@@H]1Oc1ccc(C(=O)N(C)c2ccc(C(=O)O)cc2)cc1)c1ccc(C)cc1 [Compound 175] | 1.06e+06 M⁻¹ s⁻¹ |
| CCC[C@@H](NC(=O)N1C(=O)C(CC)(CC)[C@@H]1Oc1ccc(C(=O)N(C)c2ccc(C(=O)NS(=O)(=O)c3ccccc3)cc2)cc1)c1ccc(C)cc1 [Compound 176] | 3.23e+06 M⁻¹ s⁻¹ |
| CCC[C@@H](NC(=O)N1C(=O)C(CC)(CC)[C@@H]1Oc1ccc(C(=O)N(C)CCN(C)Cc2ccc(C#N)cc2)cc1)c1ccc(C)cc1 [Compound 177] | 2.2e+06 M⁻¹ s⁻¹ |
| CCC[C@@H](NC(=O)N1C(=O)C(CC)(CC)[C@@H]1Oc1ccc(C(=O)N(C)CCN(C)Cc2ccc(C)cc2)cc1)c1ccc(C)cc1 [Compound 178] | 1.87e+06 M⁻¹ s⁻¹ |
| CCC[C@@H](NC(=O)N1C(=O)C(CC)(CC)[C@@H]1Oc1ccc(C(=O)N(C)CCN(C)Cc2cccc(C#N)c2)cc1)c1ccc(C)cc1 [Compound 179] | 2.45e+06 M⁻¹ s⁻¹ |
| CCC[C@@H](NC(=O)N1C(=O)C(CC)(CC)[C@@H]1Oc1ccc(C(=O)N(C)CCN(C)Cc2ccc(C(F)(F)F)cc2)cc1)c1ccc(C)cc1 [Compound 180] | 905000 M⁻¹ s⁻¹ |
| CCC[C@@H](NC(=O)N1C(=O)C(CC)(CC)[C@@H]1Oc1ccc(C(=O)N(C)CCN(C)Cc2cccc(C(F)(F)F)c2)cc1)c1ccc(C)cc1 [Compound 181] | 564000 M⁻¹ s⁻¹ |
| CCC[C@@H](NC(=O)N1C(=O)C(CC)(CC)[C@@H]1Oc1ccc(C(=O)N(C)CCN(C)Cc2ccc(F)cc2)cc1)c1ccc(C)cc1 [Compound 182] | 2.14e+06 M⁻¹ s⁻¹ |
| CCC[C@@H](NC(=O)N1C(=O)C(CC)(CC)[C@@H]1Oc1ccc(C(=O)NC(C)[PH](=O)O)cc1)c1ccc(C)cc1 (stereo partly shown) [Compound 183] | 977000 M⁻¹ s⁻¹ |
